This is an account of results in patent publication US20240148664A1, “LIPID AND COMPOSITION” (SOGO PHARMACEUTICAL CO., LTD., priority 2021, published 2024).

Entries after “also recorded” stand apart in the source; their conditions may differ.

The subject of data set [1] is HEK293T cells and NIH3T3 cells. In words: Evaluation of toxicity (CellTiter-Fluor Cell Viability Assay, CTF). The class given is cell-based. The settings on record: lipid nanoparticle containing mRNA; number of surviving cells relative to cells without lipid nanoparticle set at 1; one rating per lipid, printed on the HEK293T line. How it is done:
For lipids (Ia), (Ib), and (Ie) of Examples 1, 2, and 5, a cell experiment was carried out by using HEK293T cells and NIH3T3 cells in order to evaluate lipid nanoparticles encapsulating an mRNA. By transfecting the cells with lipid nanoparticles and measuring the amount of a predetermined protein produced, the performance of the lipid nanoparticles used can be evaluated. Hereinafter, the procedure of the cell experiment will be shown.
A. Seeding of Cells • (i) A liquid medium (DMEM High glucose, FBS+, P/S+) was temperature-controlled in an incubator set at 37° C. • (ii) A cryotube containing cells was taken out from a −80° C. freezer and thawed at once in the incubator set at 37° C. • (iii) A test tube was subjected to a centrifuge to precipitate the cells. • (iv) The supernatant was aspirated, and the liquid medium was added and gently tapped to disperse the cells. • (v) A small amount of the cells-dispersed liquid medium was collected, and the number of cells was observed and counted under a microscope. • (vi) The cells were seeded in three 24-well black plates such that the number of cells was 1×10^4 cells per well. The 24-well black plates were placed in an incubator, and the cells were cultured for 24 hours under conditions of 37° C. and 5% CO2. […]
D. Evaluation of Toxicity (CellTiter-Fluor (Registered Trademark) Cell Viability Assay) • (i) The CellTiter-Fluor (registered trademark) Cell Viability (CTF) Assay Reagent was completely thawed in a 37° C. water bath. • (ii) GF-AFC Substrate was uniformly mixed by using a vortex mixer. • (iii) The required amounts of Buffer and GF-AFC Substrate attached to the CTF Assay Reagent (Kit) were mixed at a mixing ratio of 10 mL:10 μL. • (iv) 100 μL per well of the mixed CTF Reagent mixture was added to a 24-well black plate containing the cells cultured in B. (v) above, and the plate was quickly shielded from light with aluminum foil, and then shaken on a plate shaker for 30 seconds. • (v) The plate was placed in an incubator, […], and the cells were cultured for 30 minutes under conditions of 37° C. and 5% CO2. • (vi) The fluorescence intensity was measured with a plate reader (excitation wavelength of 380 nm, fluorescence wavelength of 505 nm). Based on the obtained measurement results, the number of surviving cells was calculated with the fluorescence intensity of cells to which no lipid nanoparticle was added set at 1. […]

For data set [2], the system named is mice. The data set can be described thus: In vivo animal experiment: protein expression level after intramuscular administration of mRNA lipid nanoparticles (IVIS luminescence). The settings on record: intramuscular left hind leg, 1.25 μg mRNA/mouse, time point of the value not stated. How it is done:
An experiment was carried out in mice in order to evaluate lipid nanoparticles encapsulating an mRNA. By injecting mice with a solution including lipid nanoparticles to transfect the mice and measuring the amount of a predetermined protein produced, the performance of the lipid nanoparticles used can be evaluated. Hereinafter, the procedure of the experiment will be shown.
By using lipids (Ib), (Ik), and (II) of Examples 2, 11, and 12, lipid nanoparticle-containing solutions for the in vivo animal experiment were prepared. […]
50 μL (1.25 μg/mouse, in terms of amount of mRNA) of the solution for administration was intramuscularly administered to the left hind leg of mice. […] 10 Minutes after administration of the luciferin solution, the amount of luminescence at a predetermined time after administration was measured under isoflurane anesthesia with an in vivo imaging system (manufactured by Xenogen, IVIS) to calculate the protein expression level.

In the case of `CCCCCCCC/C=C\CCCCCCCCC(CCCCCCC/C=C\CCCCCCCC)OC(=O)C(NC(=O)C(N)CCCNC(=N)N)C(C)O` [Example 5, (9Z,27Z)-hexatriaconta-9,27-dien-18-yl (2S)-2-((S)-2-amino-5-guanidinopentanamido)-3-hydroxybutanoate], the “CTF Assay” value in data set [1] was “low cytotoxicity; also recorded: ⊚ (When the number of surviving cells was more than 0.80 and 1.00 or less, a rating of double-circle (excellent) was given)”.

With `CCCCCCCC/C=C\CCCCCCCCC(CCCCCCC/C=C\CCCCCCCC)OC(=O)C(CC(=O)O)NC(=O)C(N)CCCNC(=N)N` (centres unmarked) [Example 1, 3-(2-amino-5-guanidinopentanamido)-4-(((9Z,27Z)-hexatriaconta-9,27-dien-18-yl)oxy)-4-oxobutanoic acid], the “CTF Assay” value in data set [1] is “low cytotoxicity; also recorded: ⊚ (When the number of surviving cells was more than 0.80 and 1.00 or less, a rating of double-circle (excellent) was given)”.

As to `CCCCCCCC/C=C\CCCCCCCCC(CCCCCCC/C=C\CCCCCCCC)OC(=O)C(CCC(=O)O)NC(=O)C(N)CCCNC(=N)N` (centres unmarked) [Example 2, 4-(2-amino-5-guanidinopentanamido)-5-(((9Z,27Z)-hexatriaconta-9,27-dien-18-yl)oxy)-5-oxopentanoic acid], the “CTF Assay” value in data set [1] is “low cytotoxicity; also recorded: ⊚ (When the number of surviving cells was more than 0.80 and 1.00 or less, a rating of double-circle (excellent) was given)”. The values for the Protein expression level in data set [2] (PEG-modified lipid (PEG2000-DMG 1.5 mol %) present) and in data set [2] (PEG-modified lipid absent) were 130,000 and 13,000, respectively.
